Data on 10 molecules can be found in patent publication US9012489B2, “Phenyl-3-aza-bicyclo[3.1.0]hex-3-yl-methanones and the use thereof as medicament” (Boehringer Ingelheim International GmbH, priority 2011, dated 2015).

The target in the test is T1, GlyT1 transporter (Homo sapiens, UniProt P48067).
T1 construct: endogenously expressing the GlyT1 transporter; host or cells: SK-N-MC human neuroblastoma cells
T1 sequence (P48067 1-706): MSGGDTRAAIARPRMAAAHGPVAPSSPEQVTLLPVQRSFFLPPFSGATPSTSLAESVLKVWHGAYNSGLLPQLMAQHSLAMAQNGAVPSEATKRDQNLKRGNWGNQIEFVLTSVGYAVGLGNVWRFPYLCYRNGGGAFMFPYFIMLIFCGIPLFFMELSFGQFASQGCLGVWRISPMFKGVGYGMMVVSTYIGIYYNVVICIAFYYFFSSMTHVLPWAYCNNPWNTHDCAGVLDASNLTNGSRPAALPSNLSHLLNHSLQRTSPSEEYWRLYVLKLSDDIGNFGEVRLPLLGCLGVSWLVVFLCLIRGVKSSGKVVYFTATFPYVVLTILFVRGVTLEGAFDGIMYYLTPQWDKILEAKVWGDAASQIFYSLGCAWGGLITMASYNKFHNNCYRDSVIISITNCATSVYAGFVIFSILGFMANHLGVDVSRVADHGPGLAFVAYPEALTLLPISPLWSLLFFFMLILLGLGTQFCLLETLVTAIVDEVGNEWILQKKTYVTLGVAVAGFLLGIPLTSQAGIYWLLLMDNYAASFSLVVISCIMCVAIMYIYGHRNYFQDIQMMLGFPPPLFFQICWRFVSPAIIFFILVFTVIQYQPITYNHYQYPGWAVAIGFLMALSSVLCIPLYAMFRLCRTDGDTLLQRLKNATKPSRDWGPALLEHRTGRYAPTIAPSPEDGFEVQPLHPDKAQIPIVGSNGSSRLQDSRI
The test can be described thus: GlyT1 assay: 3H-glycine uptake into SK-N-MC cells (Cytostar-T format). It is filed as cell-based. Conditions: glycine uptake in human SK-N-MC cells endogenously expressing GlyT1; 500 nM glycine, 1% DMSO, signal recorded over 60 min. In outline:
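Uptake slopes, measured over 60 min from the linear kinetic range, give IC50 from 8 compound concentrations, with 10 μM RG-1678 setting background. Substrate is 500 nM glycine (250 nM ³H, 250 nM unlabelled) in HBSS/5 mM alanine, 1% DMSO, after roughly 5-10 min compound preincubation. Cells: confluent SK-N-MC endogenously expressing human GlyT1.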
On to `C[C@H](Oc1ccc(S(C)(=O)=O)cc1C(=O)N1CC2CC2(c2nc(C3CC3)no2)C1)C(F)(F)F` (single isomer, unassigned) [Example 144, [1-(3-Cyclopropyl-[1,2,4]oxadiazol-5-yl)-3-aza-bicyclo[3.1.0]hex-3-yl]-[5-methanesulfonyl-2-(2,2,2-trifluoro-1-methyl-ethoxy)-phenyl]-methanone], for which the midpoint of inhibition, the IC50, lay at 164 nM.
Take `Cc1c(C23CC2CN(C(=O)c2cc(S(C)(=O)=O)ccc2O[C@H](C)C(F)(F)F)C3)noc1C(F)(F)F` (single isomer, unassigned) [Example 161]: the IC50 (commonly the point on the concentration scale where inhibition reaches its midpoint) is 9 nM.
`Cc1nc(C23CC2CN(C(=O)c2cc(S(C)(=O)=O)ccc2O[C@H](C)C(F)(F)F)C3)no1` (single isomer, unassigned) [Example 43, [5-Methanesulfonyl-2-(2,2,2-trifluoro-1-methyl-ethoxy)-phenyl]-[1-(5-methyl-[1,2,4]oxadiazol-3-yl)-3-aza-bicyclo[3.1.0]hex-3-yl]-methanone]: the IC50 worked out at 251 nM. This IC50 lies about 28-fold higher than the previous one.
In turn, `C[C@H](Oc1ccc(S(C)(=O)=O)cc1C(=O)N1CC2CC2(c2nc(C3(C(F)(F)F)CC3)no2)C1)C(F)(F)F` (mixture of isomers) [Example 155, [5-Methanesulfonyl-2-(2,2,2-trifluoro-1-methyl-ethoxy)-phenyl]-{1-[3-(1-trifluoromethyl-cyclopropyl)-[1,2,4]oxadiazol-5-yl]-3-aza-bicyclo[3.1.0]hex-3-yl}-methanone] showed an IC50 of 36 nM.
For the molecule `C[C@@H](Oc1ccc(S(C)(=O)=O)cc1C(=O)N1CC2CC2(c2nnc(C(F)(F)F)o2)C1)C(F)(F)F` (single isomer, unassigned) [Example 124, [5-Methanesulfonyl-2-(2,2,2-trifluoro-1-methyl-ethoxy)-phenyl]-[1-(5-trifluoromethyl-[1,3,4]oxadiazol-2-yl)-3-aza-bicyclo[3.1.0]hex-3-yl]-methanone], the IC50 amounted to 503 nM.
Next, `C[C@H](Oc1ccc(S(C)(=O)=O)cc1C(=O)N1CC2CC2(c2nc(C(F)(F)F)co2)C1)C(F)(F)F` (single isomer, unassigned) [Example 136, [5-Methanesulfonyl-2-(2,2,2-trifluoro-1-methyl-ethoxy)-phenyl]-[1-(4-trifluoromethyl-oxazol-2-yl)-3-aza-bicyclo[3.1.0]hex-3-yl]-methanone]: 120 nM; `C[C@H](Oc1ccc(S(C)(=O)=O)cc1C(=O)N1CC2CC2(c2ncccn2)C1)C(F)(F)F` (mixture of isomers) [Example 14, [5-Methanesulfonyl-2-(2,2,2-trifluoro-1-methyl-ethoxy)-phenyl]-(1-pyrimidin-2-yl-3-aza-bicyclo[3.1.0]hex-3-yl)-methanone]: 67 nM.
Next, `Cc1nc(C23CC2CN(C(=O)c2cc(S(C)(=O)=O)ccc2O[C@@H](C)C(F)(F)F)C3)no1` (single isomer, unassigned) [Example 7, [5-Methanesulfonyl-2-(2,2,2-trifluoro-1-methyl-ethoxy)-phenyl]-[1-(5-methyl-[1,2,4]oxadiazol-3-yl)-3-aza-bicyclo[3.1.0]hex-3-yl]-methanone]: 4 nM; `C[C@@H](Oc1ccc(C#N)cc1C(=O)N1CC2CC2(c2noc(C(F)(F)F)n2)C1)C(F)(F)F` (mixture of isomers) [Example 91, 4-(2,2,2-Trifluoro-1-methyl-ethoxy)-3-[1-(5-trifluoromethyl-[1,2,4]oxadiazol-3-yl)-3-aza-bicyclo[3.1.0]hexane-3-carbonyl]-benzonitrile]: 112 nM; `C[C@H](Oc1ccc(S(C)(=O)=O)cc1C(=O)N1CC2CC2(c2noc(C3CC3(F)F)n2)C1)C(F)(F)F` (mixture of isomers) [Example 63, {1-[5-(2,2-Difluoro-cyclopropyl)-[1,2,4]oxadiazol-3-yl]-3-aza-bicyclo[3.1.0]hex-3-yl}-[5-methanesulfonyl-2-(2,2,2-trifluoro-1-methyl-ethoxy)-phenyl]-methanone]: 10 nM.
